# Reference: patent publication US20240301003A1 (NoNO Inc., priority 2021, published 2024)
# Entries after “also recorded” stand apart in the source; their conditions may differ. Read-outs that look alike come from different tables or passages of the source. Where a SMILES comes first, the peptide text is derived from it. Where no end group is shown, it is not given here. [ ]: non-standard residue; d: D form.
# Key:
# [1] = MTD studies and renal toxicity in rats (creatinine, BUN)
# PSD95PDZ2 [2] = target: T1, PSD95PDZ2 (Homo sapiens, UniProt P78352); experiment: Competitive ELISA with biotinylated-NA-1; conditions: for IC50's relative to each other: FIG. 11, within the margin of error
# Target sequence in this assay (P78352 160-246 limits assumed): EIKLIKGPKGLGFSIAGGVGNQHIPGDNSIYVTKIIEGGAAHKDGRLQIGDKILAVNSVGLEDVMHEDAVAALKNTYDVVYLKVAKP
# histamine release [3] = conditions: rat, in vivo, iv, 7.6 mg/kg
# Description: (§1) Histamine levels were quantified by using commercially available histamine ELISA assay kit (Histamine ELISA-H1531-K01, Eagle Bioscience). The plates were coated with the plasma samples (50 ul/well) incubated for 60 minutes at room temperature on an orbital shaker with medium frequency. Then 100 ul of enzyme conjugate was added to the wells and incubated for 20 minutes at room temperature. […] The reaction was stopped with 100 ul H2SO4. Absorbance was determined on an ELISA plate reader at 450 nm.
# (§2) Blood samples were taken at pre-injection and at 0, 1, 2.5, 5, 10, 15, 30- and 60-minutes post dose and used for histamine levels quantification using commercially available kit.
# tPA = tPA (Homo sapiens, UniProt P00750)
# tPA, sequence (P00750 36-562): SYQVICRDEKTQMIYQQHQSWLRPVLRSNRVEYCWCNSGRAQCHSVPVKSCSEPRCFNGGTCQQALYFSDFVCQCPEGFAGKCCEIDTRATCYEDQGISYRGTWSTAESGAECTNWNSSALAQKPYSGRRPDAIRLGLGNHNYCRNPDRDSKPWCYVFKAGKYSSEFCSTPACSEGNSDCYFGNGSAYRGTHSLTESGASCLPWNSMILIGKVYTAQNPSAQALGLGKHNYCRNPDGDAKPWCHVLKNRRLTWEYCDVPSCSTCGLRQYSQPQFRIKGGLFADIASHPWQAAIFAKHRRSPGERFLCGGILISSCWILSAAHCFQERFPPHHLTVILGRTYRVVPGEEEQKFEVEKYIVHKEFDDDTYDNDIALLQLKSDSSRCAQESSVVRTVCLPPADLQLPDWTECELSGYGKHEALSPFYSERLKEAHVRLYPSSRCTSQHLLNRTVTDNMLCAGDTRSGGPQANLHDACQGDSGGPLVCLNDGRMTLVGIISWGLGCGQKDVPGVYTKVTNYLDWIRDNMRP
# [4] = rat, in vivo, sc, 25 mg/kg
# Description: (§3) Rats were anaesthetized in the supine position (Isoflurane 1.5--%) and allowed to breath spontaneously in 0.5 L/min 02. The left femoral artery was cannulated for blood sampling.
# (§4) Test agents were prepared at the stablish concentration in a total volume of vehicle. Pulmonary instillation was performed by intubation with a 14G catheter connected to a 1 cc syringe and the test agent will be delivered through the catheter. Subcutaneous (SQ or SC) injection was injected into the area of the left flank, no more than 2 ml of total volume per site.
# (§5) Each dose was evaluated in 3 rats for each administration strategy. […] For the first experiment, evaluating two different administration routes (SQ and PI), blood samples were collected at 8 different timepoints: Pre and at 7 additional times (1, 2.5, 5, 10, 15, 30, 60 min) post dose (250 ul/sample).
# (§6) HPLC quantification: Plasma was separated from blood and stored at −−−80° C. until used. […] Standard curves for HPLC were generated from plasma samples spiked with known quantities of test agent.
# [5] = Physiologic parameters of NHP animals post NA-3 subcutaneous dose; assay type: in vivo, cynomolgus macaques
# [6] = NA-3 pharmacokinetics after subcutaneous injection in non-human primates; assay type: in vivo, cynomolgus macaques; conditions: for plasma concentrations achieved: cynomolgus macaques
# Text: All values are presented as mean±SD; Statistical significance when compared to nerinetide alone is indicated as * (one-way ANOVA with post-hoc turkey's correction, *P<0.01). (Cmax: maximum plasma concentrations based on the extrapolated time-zero value; t1/2: half-life at terminal phase; tmax: time to reach Cmax; AUC0-t: area under the concentration-time curve from 0 to the last measured value; AUC0-inf: extrapolated area under the concentration-time curve from 0 to infinity; Cl: total clearance). Data is presented as mean±SD of three-four animals per group. The (-) represent data not reported due to an extrapolation of the AUC0-inf greater than 20% and R^2 lower than 0.9.
# histamine release [7] = experiment: Histamine release in rats, plasma histamine ELISA; conditions: rats
# Description: as §1, §2
# [8] = Plasma concentrations 15 minutes post subcutaneous dose (animals of the 3PVO model); assay type: in vivo, rat
# Description: Unlike transient models of stroke in rats where much lower doses are required for neuroprotection, neuroprotection in 3 pial vessel occlusion models of stroke seems to require plasma concentrations of nerinetide at or above 2 ug/mL (or molar equivalent). […] Although the plasma levels continue to increase through about 3 hours then decrease, it is important to achieve rapid accumulation in the blood and brain for emergency indications like stroke. […] For pharmacokinetic sample analysis, calibration standard samples at concentrations of 0, 2.5, 5, 10, 15, 20 and 40 ug/mL of nerinetide were prepared by spiking 1 μL of the appropriate stock to 100 μL of plasma. […] Data is presented as mean±SD.
# [9] = Pharmacokinetic analysis in rats (subcutaneous, pulmonary instillation, intravenous, intramuscular), HPLC
# Description: as §3, §4, §5, §6
# PSD-95 PDZ domain 2 [10] = target: PSD-95 PDZ domain 2 (UniProt P78352); experiment: competitive ELISA on coated PSD95PDZ2
# PSD-95 PDZ domain 2, sequence (P78352 160-246 limits assumed): as the sequence (P78352 160-246 limits assumed) above
# PSD95PDZ2 [11] = target: T1, PSD95PDZ2; experiment: direct ELISA; biotinylated peptide (Bio-D-NA1)
# Target sequence in this assay (P78352 160-246): as the sequence (P78352 160-246 limits assumed) above
# PSD-95 PDZ domain 2 [12] = target: PSD-95 PDZ domain 2 (UniProt P78352); experiment: competitive ELISA on coated PSD95PDZ2, competitor biotinylated NA-1
# PSD95PDZ2 [13] = target: T1, PSD95PDZ2; experiment: direct ELISA; biotinylated peptide (Bio-D-Tat-L-NA1); unit printed "um"
# Target sequence in this assay (P78352 160-246): as the sequence (P78352 160-246 limits assumed) above
# plasmin = experiment: digested with plasmin
# [14] = rat plasma in vitro with tPA administered simultaneously
compound,measurement,setting,value
CC[C@H](C)[C@H](NC(=O)[C@H](CO)NC(=O)[C@H](CO)NC(=O)[C@H](CC(C)C)NC(=O)[C@H](CCCCN)NC(=O)[C@@H](CCCNC(=N)N)NC(=O)[C@@H](CCCNC(=N)N)NC(=O)[C@@H](CCCNC(=N)N)NC(=O)[C@@H](CCC(N)=O)NC(=O)[C@@H](CCCNC(=N)N)NC(=O)[C@@H](CCCNC(=N)N)NC(=O)[C@@H](CCCCN)NC(=O)[C@@H](CCCCN)NC(=O)[C@@H](CCCNC(=N)N)NC(=O)CNC(=O)[C@H](N)Cc1ccc(O)cc1)C(=O)N[C@@H](CCC(=O)O)C(=O)N[C@@H](CO)C(=O)N[C@@H](CC(=O)O)C(=O)N[C@H](C(=O)O)C(C)C [D-Tat-L-2B9C] (HELM PEPTIDE1{[dY].G.[dR].[dK].[dK].[dR].[dR].[dQ].[dR].[dR].[dR].K.L.S.S.I.E.S.D.V}$$$$V2.0; N-terminus and C-terminus assumed),creatinine versus the same dose level of NA-3,"[1]; rats, subcutaneous 25 mg/kg",Much less creatinine is observed
same,IC50,PSD95PDZ2 [2],< 5 µM
same,IC50's relative to each other,PSD95PDZ2 [2],within a factor of two of each other
same,EC50 (compared between peptides),"PSD95PDZ2 [2]; PSD-95 domain 2, FIG. 12",about the same within experimental error
same,histamine release,histamine release [3],did result in significant histamine release
same,"degradation, control treatment with tPA",tPA,no degradation
same,AUC compared with subcutaneous NA-1,[4],increased Cmax and AUC relative to subcutaneous NA-1 but not to the same extent
same,Cmax compared with subcutaneous NA-1,[4],increased Cmax and AUC relative to subcutaneous NA-1 but not to the same extent
"CC[C@H](C)[C@H](NC(=O)[C@@H](CO)NC(=O)[C@@H](CO)NC(=O)[C@@H](CC(C)C)NC(=O)[C@@H](CCCCN)NC(=O)[C@@H](CCCNC(=N)N)NC(=O)[C@@H](CCCNC(=N)N)NC(=O)[C@@H](CCCNC(=N)N)NC(=O)[C@@H](CCC(N)=O)NC(=O)[C@@H](CCCNC(=N)N)NC(=O)[C@@H](CCCNC(=N)N)NC(=O)[C@@H](CCCCN)NC(=O)[C@@H](CCCCN)NC(=O)[C@@H](CCCNC(=N)N)NC(=O)CNC(=O)[C@H](N)Cc1ccc(O)cc1)C(=O)N[C@@H](CCC(=O)O)C(=O)N[C@@H](CO)C(=O)N[C@@H](CC(=O)O)C(=O)N[C@H](C(=O)O)C(C)C [NA-3, ygrkkrrqrrrklssIESDV] (HELM PEPTIDE1{[dY].G.[dR].[dK].[dK].[dR].[dR].[dQ].[dR].[dR].[dR].[dK].[dL].[dS].[dS].I.E.S.D.V}$$$$V2.0; N-terminus and C-terminus assumed)",drops in blood pressure compared to NA-1,[5],No significant drops in blood pressure were observed
same,safety issues in physiologic parameters compared to intravenous nerinetide,[5],no significant safety issues were identified
same,therapeutic index,[1]; minimum effective dose versus highest no observed adverse effect level,low
same,creatinine and BUN values out of range,"[1]; rats, subcutaneous 7.6 mg/kg or 2.6 mg/kg",No values out of range were observed
same,persistence of creatinine and BUN increases,"[1]; rats, subcutaneous 25 mg/kg",persisted through day 7
same,creatinine and BUN (blood urea nitrogen),"[1]; rats, subcutaneous 25 mg/kg or 50 mg/kg, day 1 post dose",dose-dependent increases in creatinine and BUN
same,creatinine levels on reducing the dose 2-fold,"[1]; rats, subcutaneous, versus 25 mg/kg NA-3, pre and after 1 day",significant reduction of the NA-3 creatinine levels
same,plasma concentrations achieved,[6]; subcutaneous 7.6 mg/Kg,able to achieve plasma concentrations higher than those demonstrated to be effective in humans
same,plasma concentrations achieved,[6]; subcutaneous 25 mg/kg,able to achieve plasma concentrations higher than those demonstrated to be effective in humans
same,Cmax and AUC versus nerinetide IV infusion,[6]; subcutaneous 25 mg/kg,greater Cmax and AUC than nerinetide IV infusion
same,histamine release,histamine release [7]; 25 mg/kg SQ,resulted in histamine release but still much less than 7.6 mg/kg IV
same,histamine release,histamine release [7]; subcutaneous 2.8 mg/kg,did not result in significant histamine release
same,histamine release,histamine release [7]; subcutaneous 8.3 mg/kg,did not result in significant histamine release
same,plasma concentration compared to nerinetide at the same dose,[8]; 15 min post subcutaneous dose,higher concentration at 15 min post-dose
same,relation between treatment dose and Cmax,"[8]; single subcutaneous administration, 2.5, 7.6, 25 mg/kg",dose proportionality between the treatment dose and the Cmax
same,IC50,PSD95PDZ2 [2],< 5 µM
same,IC50's relative to each other,PSD95PDZ2 [2],within a factor of two of each other
same,plasma concentration and plasma exposure relative to intrapulmonary NA-1,[9]; pulmonary instillation,higher plasma concentration and a greater plasma exposure
same,CMax after pulmonary instillation,[9]; pulmonary instillation 25 mg/kg,higher CMax than for NA-1 or D-Tat-L-2B9C
same,AUC compared with subcutaneous NA-1,[9]; subcutaneous 25 mg/kg,increased
same,Cmax compared with subcutaneous NA-1,[9]; subcutaneous 25 mg/kg,increased
same,dose dependence of Cmax and AUC,"[9]; subcutaneous 25, 8.3, 2.8 mg/kg",dose-dependent increasing linearly with dose
D-NA-1 (peptide),fold change of EC50 against NA-1 and D-Tat-L-2B9C,PSD-95 PDZ domain 2 [10],10 fold
D-NA-1 NA1,EC50,PSD95PDZ2 [11],1380 nM
D-TAT-L-2B9c (peptide),ratio of IC50 against D-Tat-L-IESDV,PSD-95 PDZ domain 2 [12],< 2 fold
D-Tat-L-NA-1,EC50,PSD95PDZ2 [13],139 nM
YGRKKRRQRRRKLSSIESDV,fragment found,plasmin,RRQRRRKLSSIESDV; also recorded: RQRRRKLSSIESDV; also recorded: QRRRKLSSIESDV; also recorded: RRKLSSIESDV; also recorded: RKLSSIESDV; also recorded: KLSSIESDV; also recorded: LSSIESDV
yGrkkrrqrrrKLSSIESDV ([dY]G[dR][dK][dK][dR][dR][dQ][dR][dR][dR]KLSSIESDV),not cleaved,[14],only negligible degradation when co-administered with tPA
